In patent US8802638B1, “Flavonoid treatment of glycogen synthase kinase-based disease” (University of South Florida, priority 2007, dated 2014):

Columns and labels:
[1] = tested on: Tg2576 mice; details: 0.05% diosmin diet for 6 months
[2] = tested on: PS1; test: Western blot of PS1 C-terminal fragment phosphorylation in SweAPP N2a cells; format: cell-based, murine
Method: (§1) Cultured cells or mouse brain were lysed in ice-cold lysis buffer described above, and an aliquot corresponding to 50 μg of total protein was electrophoretically separated using 12% Tris-HCl or 16.5% Tris-tricine gels. Electrophoresed proteins were then transferred to PVDF membranes, washed in dH2O, and blocked for 1 hr at ambient temperature in Tris-buffered saline (TBS; Bio-Rad) containing 5% (w/v) non-fat dry milk. After blocking, membranes were hybridized for 1 hr at ambient temperature with various primary antibodies. Membranes were then washed 3× for 5 min each in dH2O and incubated for 1 hr at ambient temperature with the appropriate HRP-conjugated secondary antibody (1:1,000). All antibodies were diluted in TBS containing 5% (w/v) of non-fat dry milk. Blots were developed using the luminol reagent (Pierce Biotechnology). Densitometric analysis was done as previously described using a FluorS Multiimager with Quantity One™ software. Immunoprecipitation was performed for detection of sAPP-α, sAPP-β and Aβ by incubating 200 μg of total protein of each sample with various sequential combinations of 6E10 (1:100) and/or 22C11 (1:100) antibodies overnight with gentle rocking at 4° C., and 10 μL of 50% protein A-Sepharose beads were then added to the sample (1:10; Sigma) prior to gentle rocking for an additional 4 hrs at 4° C. Following washes with 1× cell lysis buffer, samples were subjected to Western blot as described above. Antibodies used for Western blot included the APP-carboxyl-terminal antibody (1:50)), amino-terminal APP antibody (clone 22C11), or 6E10 (1:1,000), or actin antibody (1:1,500; as an internal reference control). γ-secretase activity was quantified in cell lysates using available kits (R&D Systems, Minneapolis, Minn.), based on secretase-specific peptides conjugated to fluorogenic reporter molecules.
The two bands of highest molecular weight, approximately 20 kD and 18 kD in size, represent phosphorylated PS1 CTFs with a smaller 16 kD band representing the more common CTF product indicative of PS1 endoproteolytic cleavage.
To confirm that the 20 kD and 18 kD bands were phosphorylated PS1 isoforms, SweAPP N2a cells were treated with luteolin (20 μM) prior to lysis and cell lysates incubated with calf intestine alkaline phosphatase (CIAP) (Fermentas, Hanover, Md.), to dephosphorylate any potential phosphorylated proteins, to eliminate skewing of electrophorectic mobilities. Following 30 minutes of incubation, the 20 kD band is not evident in the CIAP treated lysates, seen in FIGS. 21(A) through 22, and the 18 kD band reduced while endogenous CTF, 16 kD, appears to accumulate. When compared to lysates incubated with only reaction buffer, phosphorylated residues decrease in a time dependent manner, shown by the 20 kD CTF:16 kD CTF. […] Luteolin affects PS1 phosphorylation and may indicate a means by which γ-secretase activity may be regulated.
To determine if this phenomenon was specifically attributable to luteolin treatment or more generally in regards to GSK-3 inhibition, SweAPP N2a cells were treated with a range of doses of the GSK-3 inhibitor SB-415286 (BIOMOL®, Plymouth Meeting, Pa.). […] FIG. 24(B). GSK-3α and β was successfully knocked-down (>70%, data not shown) with siRNA in SweAPP N2a cells, substantiating the role of GSK-3α in this luteolin-mediated PS1 processing. […]

[3] = tested on: PS1-APP association; test: PS1-APP association, immunoprecipitation/Western blot in SweAPP N2a cells; format: cell-based, murine; details: 20 μM for 4 hrs or siRNA transfection
Method: as §1
Cell lysates of luteolin-treated SweAPP N2a cells were immunoprecipitated by PS1 antibody and probed for APP to clarify how phospho-PS1 CTF isoforms may regulate γ-secretase activity, seen in FIGS. 26(A) through 27(B). As illustrated in FIGS. 26(A) and (B), the APP-PS1 association is disrupted by luteolin, SB-415286 treatment, and GSK-3α siRNA. […] Thus, GSK-3α or, more specifically, downstream phosphorylation of the PS1 CTF plays an essential role in regulating the association of γ-secretase complex with its APP substrate.

[4] = tested on: SweAPP N2a cells; test: APP proteolysis (Aβ ELISA, IP, APP CTF Western blot) in SweAPP N2a cells; format: cell-based, murine; details: result in words; ELISA/IP/Western blot
Method: as §1, with “(1:1,000). Antibodies were obtained against the amino-terminus and carboxyl-terminus of PS1 (Chemicon, Temecula, Calif.), amino-terminus and carboxyl-terminus of APP (22C11), actin (Roche, Basel, Switzerland), Aβ (6E10, 48G) (Signet Laboratories, Dedham, Mass.), phosphor-GSK3α (ser^21, clone BK202) (Upstate, Lake Placid, N.Y.), phospho-GSK3α/β (pTyr^279/216) (Sigma), phospho-GSK-3β (Ser^9) (Sigma) and total GSK-3α/β (Sigma).” for “(1:1,000).”, “software (39).” for “software.”, “kits” for “kits (R&D Systems, Minneapolis, Minn.),”
SweAPP N2a cells and primary neuronal cells derived from Tg2576 mice were treated with varying doses of luteolin to examine luteolin's effect on APP proteolysis. Cellular extracts were collected and analyzed using immunoprecipitation (IP), Western blot, and ELISA. […] See FIGS. 1 through 2(B) and 5 through 6(B). SweAPP N2a and primary Tg2576-derived neuronal cells CTF profiles were analyzed following luteolin treatment to determine at which level luteolin impacts amyloid processing.

[5] = tested on: TACE, ADAM10, sAPPα; test: non-amyloidogenic APP processing (TACE, ADAM10 maturation, sAPPα release); format: cell-based; details: data not shown
Excerpt: The presence of phosphorylated PS1 CTFs corresponds with reduction of Aβ generation and accumulation of the β-CTF of APP, as was observed following luteolin treatment. The accumulation β-CTFs following luteolin treatment is a fraction of β-CTF seen after direct γ-secretase inhibitor treatment (data not shown). In view of this finding, selective GSK-3 inactivation is a less toxic, more regulative, substrate-specific mode of γ-secretase inhibition. Earlier studies routinely employed phorbol-12,13-dibutyrate (PDBu), a potent PKC activator, as their phosphorylating agent. Thus, luteolin was tested for similar PKC activation, rather than a GSK-3 inhibitor. […] Additionally, there are no indications GSK-3α inhibition affects non-amyloidogenic processing of APP, since luteolin, SB-415286, and GSK-3α RNAi treatment have no effect on the maturation of TACE, ADAM10, or sAPPα release (data not shown), which are all strongly associated with PKC activation.

[6] = target: T1, γ-secretase (Mus musculus, UniProt P49769); test: fluorometric assay for γ-secretase cleavage activity in SweAPP N2a cell lysates; format: cell-based, murine; details: relative to untreated control
T1 construct: endogenous in cells; host or cells: SweAPP N2a cells (lysates of treated cells)
Method: Cultured cells or mouse brain were lysed in ice-cold lysis buffer described above, and an aliquot corresponding to 50 μg of total protein was electrophoretically separated using 12% Tris-HCl or 16.5% Tris-tricine gels. Electrophoresed proteins were then transferred to PVDF membranes, washed in dH2O, and blocked for 1 hr at ambient temperature in Tris-buffered saline (TBS; Bio-Rad) containing 5% (w/v) non-fat dry milk. After blocking, membranes were hybridized for 1 hr at ambient temperature with various primary antibodies. Membranes were then washed 3× for 5 min each in dH2O and incubated for 1 hr at ambient temperature with the appropriate HRP-conjugated secondary antibody (1:1,000). Antibodies were obtained against the amino-terminus and carboxyl-terminus of PS1 (Chemicon, Temecula, Calif.), amino-terminus and carboxyl-terminus of APP (22C11), actin (Roche, Basel, Switzerland), Aβ (6E10, 48G) (Signet Laboratories, Dedham, Mass.), phosphor-GSK3α (ser^21, clone BK202) (Upstate, Lake Placid, N.Y.), phospho-GSK3α/β (pTyr^279/216) (Sigma), phospho-GSK-3β (Ser^9) (Sigma) and total GSK-3α/β (Sigma). […] Densitometric analysis was done as previously described using a FluorS Multiimager with Quantity One™ software (39). […] Antibodies used for Western blot included the APP-carboxyl-terminal antibody (1:50)), amino-terminal APP antibody (clone 22C11), or 6E10 (1:1,000), or actin antibody (1:1,500; as an internal reference control). γ-secretase activity was quantified in cell lysates using available kits based on secretase-specific peptides conjugated to fluorogenic reporter molecules.
Due to the implications on γ-secretase activity, luteolin's effect on SweAPP N2a cells was analyzed using a fluorometric assay for γ-cleavage.
Cultured cells or mouse brain were lysed in ice-cold lysis buffer described above, and an aliquot corresponding to 50 μg of total protein was electrophoretically separated using 12% Tris-HCl or 16.5% Tris-tricine gels. […] Densitometric analysis was done as previously described using a FluorS Multiimager with Quantity One™ software. […]

[7] = diosmetin formed from diosmin by intestinal flora; cited from earlier work
[8] = tested on: GSK-3α/β; test: Western blot of phosphorylated GSK-3α/β forms in SweAPP N2a cells; format: cell-based, murine; details: SweAPP N2a cells co-treated with luteolin or SB-415286 and GF109203X; data not shown
Method: Cultured cells or mouse brain were lysed in ice-cold lysis buffer described above, and an aliquot corresponding to 50 μg of total protein was electrophoretically separated using 12% Tris-HCl or 16.5% Tris-tricine gels. Electrophoresed proteins were then transferred to PVDF membranes, washed in dH2O, and blocked for 1 hr at ambient temperature in Tris-buffered saline (TBS; Bio-Rad) containing 5% (w/v) non-fat dry milk. After blocking, membranes were hybridized for 1 hr at ambient temperature with various primary antibodies. Membranes were then washed 3× for 5 min each in dH2O and incubated for 1 hr at ambient temperature with the appropriate HRP-conjugated secondary antibody (1:1,000). Antibodies were obtained against the amino-terminus and carboxyl-terminus of PS1 (Chemicon, Temecula, Calif.), amino-terminus and carboxyl-terminus of APP (22C11), actin (Roche, Basel, Switzerland), Aβ (6E10, 48G) (Signet Laboratories, Dedham, Mass.), phosphor-GSK3α (ser^21, clone BK202) (Upstate, Lake Placid, N.Y.), phospho-GSK3α/β (pTyr^279/216) (Sigma), phospho-GSK-3β (Ser^9) (Sigma) and total GSK-3α/β (Sigma). All antibodies were diluted in TBS containing 5% (w/v) of non-fat dry milk. Blots were developed using the luminol reagent (Pierce Biotechnology). Densitometric analysis was done as previously described using a FluorS Multiimager with Quantity One™ software (39). […] Antibodies used for Western blot included the APP-carboxyl-terminal antibody (1:50)), amino-terminal APP antibody (clone 22C11), or 6E10 (1:1,000), or actin antibody (1:1,500; as an internal reference control). γ-secretase activity was quantified in cell lysates using available kits based on secretase-specific peptides conjugated to fluorogenic reporter molecules.
The effect luteolin had on a variety of proteins related to and/or required for proper functioning of the γ-secretase complex was evaluated to establish the mechanism whereby luteolin modulates γ-secretase activity and subsequent Aβ generation. […]

Row | γ-secretase cleavage activity [6] | Compound | PS1 CTF phosphorylation (phospho-PS1 CTF to PS1 CTF ratio) [2] | Aβ1-40, 42 production [4] | other results
1 |  | COc1ccc(-c2cc(=O)c3c(O)cc(O[C@@H]4O[C@H](CO[C@@H]5O[C@@H](C)[C@H](O)[C@@H](O)[C@H]5O)[C@@H](O)[C@H](O)[C@H]4O)cc3o2)cc1O [diosmin] |  |  | Aβ plaque burden (4G8 stained sections, image analysis) [1]: significantly reduced throughout the brain
2 |  | O=C1NC(=O)C(c2ccccc2[N+](=O)[O-])=C1Nc1ccc(O)c(Cl)c1 [SB-415286, reference compound] | Alterations in phospho-PS1 CTF:PS1 CTF ratios were similar to prior experiments | congruent decreases in Aβ1-40, 42 generation | ratio of APP to actin (full-length APP levels) ([3]; 6E10 Western blot of lysates): no significant changes; APP-PS1 association ([3]; IP with anti-PS1 CTF, 6E10 blot): disrupted; maturation of TACE, ADAM10, or sAPPα release [5]: no effect
3 | results were not similar to luteolin | O=c1cc(-c2ccc(O)cc2)oc2cc(O)cc(O)c12 [apigenin, reference compound] |  | did not reduce Aβ1-40, 42 production to the same level as luteolin, diosmetin, and diosmin | 
4 | just as efficacious as luteolin | COc1ccc(-c2cc(=O)c3c(O)cc(O)cc3o2)cc1O [diosmetin] | just as efficacious as luteolin |  | plasma half-life [7]: > 26 h
5 |  | CN(C)CCCn1cc(C2=C(c3c[nH]c4ccccc34)C(=O)NC2=O)c2ccccc21 [GF109203X, reference compound] | Minor decreases in 20 kD and 18 kD phospho-PS1 CTF isoforms |  | GSK-3 inhibition on co-treatment with PKC inhibitor [8]: no effect on GSK-3 inhibition
